Tests used:
[1] = tested on: P388 murine leukaemia cell line; experiment: Cytotoxicity/growth inhibition assay (MTT), P388; type: cell-based; settings: MTT
Outline: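 Growth inhibition of P388 murine and K562 human leukaemia cells measured by MTT assay.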

Maximum tolerated dose = settings: mouse, in vivo; mice
From the text: The in vitro studies reported in Table 11 illustrate the structure requirements necessary for biological activity. Modifications of the A ring have shown that the methoxy groups can be replaced by alkoxy or alkyl (28,31a,32a) whilst retaining their ability to inhibit assembly of isolated tubulin. Similarly, molecules with alkyl substituents on the ethene bridge (19,20,46) retain activity both as inhibitors of tubulin assembly and are growth inhibitory in vitro. The pharmacophore consists of a stilbene in a cis configuration with a small alkyl or O-alkyl substituent at the 4-position of the B ring. […] These agents show good activity in the shape-change (permeability) assay. This test is used as an in vitro assay of vascular damage. […] 97–64H was given at either ⅔ of the maximum tolerated dose (MTD=200 mg/kg) or at ¾ of the MTD to mice bearing liver metastatic T50:80 tumours. Tumours were removed and examined for evidence of vascular damage at 2 hr and 4 hr following drug administration. Similarly a dose equivalent to ¾ of the MTD was administered and the tumours examined 24 hr and 48 hr following administration of drug. […] These effects are seen within 2 hours.

[2] = Pharmacokinetic profile in mice; type: in vivo; settings: 200 mg/kg
[3] = tested on: H460 human lung xenograft; experiment: Tumour damage in H460 human lung xenograft grown subcutaneously; type: in vivo; settings: 0.75×MTD, i.p., twenty four hours following injection
Experimental: The effect of compounds 97–64H and 97–96 (quinone compound) was tested on H460 human lung xenograft grown subcutaneously by injecting equitoxic doses of the compounds (0.75×MTD).

[4] = Photoisomerisation of trans-CA-4 ex situ, composition of mixture (GC); type: physicochemical
[5] = GC, benzene, 400 W Hg lamp, 0 mins (Table 3)
[6] = GC, benzene, 400 W Hg lamp, 0.5 mins (Table 3)
[7] = GC, benzene, 400 W Hg lamp, 1.5 mins (Table 3)
[8] = GC, benzene, 400 W Hg lamp, 3.0 mins (Table 3)
[9] = GC, benzene, 400 W Hg lamp, 5.0 mins (Table 3)
[10] = GC, benzene, 400 W Hg lamp, 6.5 mins (Table 3)
[11] = GC, benzene, 400 W Hg lamp, 8.0 mins (Table 3)
[12] = GC, benzene, 400 W Hg lamp, 10.0 mins (Table 3)
[13] = GC, benzene, 400 W Hg lamp, 12.5 mins (Table 3)
[14] = GC, benzene, 400 W Hg lamp, 15.0 mins (Table 3)
[15] = GC, benzene, 400 W Hg lamp, 17.5 mins (Table 3)
[16] = GC, benzene, 400 W Hg lamp, 20.0 mins (Table 3)
[17] = photoisomerisation ex situ, 0 mins (Table 5)
[18] = photoisomerisation ex situ, 0.5 mins (Table 5)
[19] = photoisomerisation ex situ, 1.0 mins (Table 5)
[20] = photoisomerisation ex situ, 1.5 mins (Table 5)
[21] = photoisomerisation ex situ, 2.0 mins (Table 5)
[22] = photoisomerisation ex situ, 3.0 mins (Table 5)
[23] = photoisomerisation ex situ, 4.0 mins (Table 5)
[24] = photoisomerisation ex situ, 5.0 mins (Table 5)
[25] = photoisomerisation ex situ, 7.5 mins (Table 5)
[26] = photoisomerisation ex situ, 10.0 mins (Table 5)
[27] = photoisomerisation ex situ, 12.5 mins (Table 5)
[28] = photoisomerisation ex situ, 15.0 mins (Table 5)
[29] = photoisomerisation ex situ, 17.5 mins (Table 5)
[30] = photoisomerisation ex situ, 20.0 mins (Table 5)

COc1ccc(C=Cc2cc(OC)c(OC)c(OC)c2)cc1F [Compound 97-64H]
IC50 [1]: 0.489 nM | MTD (Maximum tolerated dose): 200 mg/kg | Cmax ([2]; mouse, in vivo, po): 1.49 µg/mL | half-life ([2]; mouse, in vivo, po, absorption half life): 15 min | half-life ([2]; mouse, in vivo, po, elimination half life): 32 min | concentration achieved in vivo ([2]; oral): 1490 µg/mL | concentration achieved in vivo (molar) ([2]; oral): 4600 µM | tumour damage [3]: extensive damage to the tumours

COc1ccc(/C=C/c2cc(OC)c(OC)c(OC)c2)cc1O [trans-CA-4, trans-combretastatin A-4]
% cis-stilbene [4, 5]: 0% | % phenanthrene [4, 5]: 0% | % trans-stilbene [4, 5]: 100% | % cis-stilbene [4, 6]: 0% | % phenanthrene [4, 6]: 0% | % trans-stilbene [4, 6]: 100% | % cis-stilbene [4, 7]: 0% | % phenanthrene [4, 7]: 0% | % trans-stilbene [4, 7]: 100% | % cis-stilbene [4, 8]: 13% | % phenanthrene [4, 8]: 0% | % trans-stilbene [4, 8]: 87% | % cis-stilbene [4, 9]: 31% | % phenanthrene [4, 9]: 0% | % trans-stilbene [4, 9]: 69% | % cis-stilbene [4, 10]: 45% | % phenanthrene [4, 10]: 0% | % trans-stilbene [4, 10]: 55% | % cis-stilbene [4, 11]: 47% | % phenanthrene [4, 11]: 0% | % trans-stilbene [4, 11]: 53% | % cis-stilbene [4, 12]: 53% | % phenanthrene [4, 12]: 0% | % trans-stilbene [4, 12]: 44% | % cis-stilbene [4, 13]: 68% | % phenanthrene [4, 13]: 0% | % trans-stilbene [4, 13]: 32% | % cis-stilbene [4, 14]: 71% | % phenanthrene [4, 14]: 0% | % trans-stilbene [4, 14]: 29% | % cis-stilbene [4, 15]: 74% | % phenanthrene [4, 15]: 4% | % trans-stilbene [4, 15]: 22% | % cis-stilbene [4, 16]: 73% | % phenanthrene [4, 16]: 4% | % trans-stilbene [4, 16]: 23% | % cis [4, 17]: 0.3% | % phenanthrene [4, 17]: 0% | % trans [4, 17]: 99.7% | % cis [4, 18]: 2.0% | % phenanthrene [4, 18]: 0% | % trans [4, 18]: 98.0% | % cis [4, 19]: 3.9% | % phenanthrene [4, 19]: 0% | % trans [4, 19]: 96.1% | % cis [4, 20]: 6.3% | % phenanthrene [4, 20]: 0% | % trans [4, 20]: 93.7% | % cis [4, 21]: 7.3% | % phenanthrene [4, 21]: 0% | % trans [4, 21]: 92.7% | % cis [4, 22]: 25.7% | % phenanthrene [4, 22]: 0% | % trans [4, 22]: 74.3% | % cis [4, 23]: 37.3% | % phenanthrene [4, 23]: 0% | % trans [4, 23]: 62.3% | % cis [4, 24]: 47.9% | % phenanthrene [4, 24]: 0% | % trans [4, 24]: 52.1% | % cis [4, 25]: 56.6% | % phenanthrene [4, 25]: 1.4% | % trans [4, 25]: 40.2% | % cis [4, 26]: 63.1% | % phenanthrene [4, 26]: 2.9% | % trans [4, 26]: 34.0% | % cis [4, 27]: 64.4% | % phenanthrene [4, 27]: 3.4% | % trans [4, 27]: 32.2% | % cis [4, 28]: 64.6% | % phenanthrene [4, 28]: 3.7% | % trans [4, 28]: 31.7% | % cis [4, 29]: 65.1% | % phenanthrene [4, 29]: 4.1% | % trans [4, 29]: 30.8% | % cis [4, 30]: 65.7% | % phenanthrene [4, 30]: 3.7% | % trans [4, 30]: 30.6%

Source: US7220784B2, “Substituted stilbenes and their reactions” (priority 2000, dated 2007)
